Experimental data reported in PMC11997307, “Rat Sarcoma (RAS)-Protein-Targeting Synthetic Cell-Penetrating Peptide as an Anticancer Biomaterial” (Biomaterials Research, 2025).

Assays:
Type in all cases: cell-based, human
[1] = tested on: MCF-7 cells; assay: Cell viability, CCK-8 assay, MCF-7; conditions: MCF-7 (KRAS wild-type), CCK-8, 0-1,000 μM RBP, 24, 48 or 72 h, triplicate
Description: The viability of the cells was determined via Cell Counting Kit-8 (CCK-8; Dojindo Laboratories, Kumamoto, Japan) assay. The cells were plated in 96-well culture plates at a density of 5 × 10^3 cells per well and incubated for 24 h at 37 °C in a humidified incubator with 5% CO2. […] After incubation, the medium was replaced with fresh medium containing 10% (v/v) CCK-8 reagent, and the cells were incubated for 2 h. Absorbance was measured at 450 nm using a microplate reader. All experiments were performed in triplicate.

[2] = tested on: MDA-MB-231 cells; assay: Transwell migration assay; conditions: MDA-MB-231, Transwell 8-μm pore, 200 μM RBP, 6 h
Description: To assess MDA-MB-231 cell migration, 2 methods were employed: a Transwell migration assay and a scratch assay. For the Transwell migration assay, 24-well Transwell plates (8-μm pore size; Costar, Corning Incorporated, Corning, NY, USA) were used to evaluate the invasive potential of the cells. […] Following a 6-h incubation period, nonmigratory cells were carefully removed from the upper surface of the membrane using a PBS-soaked cotton swab. The cells that successfully migrated through the membrane were fixed in methanol for 10 min, and Giemsa staining was used to visualize them. Images were captured using an Olympus DP72 camera at ×100 magnification, and the number of migrated cells in the treated samples was compared with that in the control samples. For the scratch assay, MDA-MB-231 cells (1 × 10^6 cells) were cultured in 6-well plates until they reached confluence. The cells were rinsed with PBS and incubated overnight in serum-free medium. A sterile 200-μl plastic pipette tip was used to create a linear scratch in the center of the monolayer. […] Images were taken immediately after scratching and again after 6, 24, 48, and 72 h of incubation using an Olympus CKX41 inverted microscope at ×20 magnification to evaluate the distance the cells migrated from the wound edge.

[3] = tested on: phospho-c-RAF and phospho-ERK1/2 in HCT-116 cells; assay: Western blot of RAS-MAPK pathway, HCT-116; conditions: HCT-116, 10-250 μM RBP 6 h then 50 ng/ml EGF 10 min
Description: Protein expression was confirmed via Western blot analysis. Briefly, 9 × 10^5 cells were cultured in 100-mm-diameter dishes. When they reached 90% confluence, the cells were starved for 18 h in serum-free medium. […] At the end of the culture period, the cells were lysed for 20 min in cold lysis buffer on ice. Protein concentration was measured using bicinchoninic acid protein assays (Thermo Fisher Scientific, MA, USA). Equal aliquots of protein (40 μg) were boiled for 7 min in 5× sample buffer and separated by 10% SDS–PAGE. Proteins were transferred onto nitrocellulose membranes, followed by washing with Tris-buffered saline (TBS) containing 0.1% Tween 20 (TBST). The membranes were then blocked for 60 min at room temperature with 5% skim milk in TBST. Following the washing procedure, the membranes were incubated with primary antibodies (RAS, phospho-ERK1/2, ERK1/2, phospho-RAF proto-oncogene serine/threonine-protein kinase [phospho-c-RAF; S338], c-RAF [Cell Signaling Technology, Beverly, MA, USA], and GAPDH [Santa Cruz Biotechnology, Inc., Santa Cruz, CA, USA]) diluted in TBST containing 5% skim milk at 4 °C for 18 h. […] The membranes were subsequently washed 3 more times, and protein bands were detected using chemiluminescence reagents (West Pico PLUS, Thermo Fisher Scientific, USA).

## C[C@@H](O)[C@H](NC(=O)[C@H](CO)NC(=O)[C@H](CS)NC(=O)[C@H](CCCCN)NC(=O)CN)C(=O)N[C@@H](CCCNC(=N)N)C(=O)NCC(=O)N[C@@H](CCCNC(=N)N)C(=O)N[C@@H](CCCCN)C(=O)N[C@@H](CS)C(=O)N[C@@H](CS)C(=O)N[C@@H](CCCNC(=N)N)C(=O)N[C@@H](CCCNC(=N)N)C(=O)N[C@@H](CCCCN)C(=O)N[C@@H](CCCCN)C(N)=O [RBP]
[1]
  decrease in the percentage of viable cells: not significant
[2]
  reduction of cell invasion vs NT group: 70%
[3]
  activation of RAF (phospho-c-RAF): effectively inhibited
[3]; p-ERK/ERK, n = 3
  phosphorylation of ERK1/2: effectively inhibited
